Where no end group is shown, it is not given here.
Legend:
Assay in all cases: Flow cytometry of FITC labeled HER2 mimics
HEK293 cells = type: cell-based, human; details: HEK 293, 10 μM, 15 minutes
Method: (§1) Flow cytometric studies were carried out to quantify the fluorescence intensity of cells after being incubated with FITC labeled mimics. MDA-MB-361, ZR-75-1 and HEK293 cells were seeded in 6-well culture plates at a density of 3×10^5 cells per well for 24 hours and then incubated with FITC labeled mimics at a concentration of 10 μM in HBSS at 37° C. for 15 minutes. After washing with HBSS twice, cells remaining on the plates were trypsinized with Trpsin-EDTA and centrifuged at 1500 rpm for 5 min. Supernatant was removed and cell pellets were resuspended in 1 ml of HBSS. The suspension was transferred to a FACS Calibur™ flow cytometer and cell fluorescence was measured with high dynamic range photomultipliers with a 530 nm filter. Quantitative changes of fluorescence in different cells samples were assessed by mean fluorescence intensity (MFI), and FACS data were analyzed using BD CellQuest™ Pro software. Paired t-tests were used to determine statistical significance using the GraphPad Prism 5® Software. P-values less than or equal to 0.05 were considered to be statistically significant.

MDA-MB-361 cells = type: cell-based; details: MDA-MB-361, 10 μM, 15 minutes
Method: as §1

ZR-75-1 cells = type: cell-based; details: ZR-75-1, 10 μM, 15 minutes
Method: as §1

“FITC-HER2-PEP22: FITC labeled control peptide HER2-PEP22 (TSPQGYPNDAGFLGRESTN; not fully specified (N-terminus); also: FITC labeled)” gave an MFI (HEK293 cells) of 14.7±1.7, an MFI (MDA-MB-361 cells) of 22.1±0.5 and an MFI (ZR-75-1 cells) of 19.6±3.2.

— US9957325B2, “Synthetic antibody mimic peptides” (Formurex, Inc., priority 2015, dated 2018)
